This experiment concerns CD2F1 mice, L1210 leukemia ip, survival T/C. In words: NCI In Vivo Anticancer Drug Screen. Data for tumor model L1210 Leukemia (intraperitoneal) in CD2F1 (CDF1) mice. Conditions: endpoint: mean survival time, higher = longer survival. Put shortly:
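Compound-dosed mice with transplantable tumor versus matched vehicle controls; endpoint ratio T/C reported.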

Where [1] appears, read: dose: 100.0 mg/kg/injection, schedule: Q04DX003 (ip), vehicle: saline with Tween-80.
Where [2] appears, read: dose: 200.0 mg/kg/injection, schedule: Q04DX003 (ip), vehicle: saline with Tween-80.
Setting [3] is: dose: 400.0 mg/kg/injection, schedule: Q04DX003 (ip), vehicle: saline with Tween-80.
Setting [4] is: dose: 50.0 mg/kg/injection, schedule: Q01DX009 (ip), vehicle: saline with Tween-80.
Setting [5] is: dose: 100.0 mg/kg/injection, schedule: Q01DX009 (ip), vehicle: saline with Tween-80.
Setting [6] is: dose: 200.0 mg/kg/injection, schedule: Q01DX009 (ip), vehicle: saline with Tween-80.
[7] abbreviates: dose: 400.0 mg/kg/injection, schedule: Q01DX009 (ip), vehicle: saline with Tween-80.
[8] abbreviates: dose: 100.0 mg/kg/injection, schedule: Q01DX001 (ip), vehicle: saline with Tween-80.
The mark [9] stands for this setting: dose: 200.0 mg/kg/injection, schedule: Q01DX001 (ip), vehicle: saline with Tween-80.
Where [10] appears, read: dose: 400.0 mg/kg/injection, schedule: Q01DX001 (ip), vehicle: saline with Tween-80.
Setting [11] is: dose: 100.0 mg/kg/injection, schedule: Q04DX003 (ip), vehicle: saline.
Where [12] appears, read: dose: 200.0 mg/kg/injection, schedule: Q04DX003 (ip), vehicle: saline.
Setting [13] is: dose: 400.0 mg/kg/injection, schedule: Q04DX003 (ip), vehicle: saline.

T/C data for 24 molecules are collected here from PubChem BioAssay AID256 (DTP/NCI, 2004).

“And” between values parts separate entries of the source, which are not always exact repeats. Equal entries are not always repeated. Inconclusive results and toxic doses are left out.

In the case of `CCC1(C)CCC2C(=CCC3C(C)(C(=O)O)CCCC23C)C1` (stereo not given), the T/C under setting [1] is 103 % of control, the T/C under setting [2] is 88 % of control and the T/C under setting [3] was 89 % of control.
Regarding `CN(C)Cc1cc(OCc2ccccc2)cc(CN(C)C)c1O`, where the note is “dose: 75.0 mg/kg/injection, schedule: Q01DX001 (ip), vehicle: saline”, the T/C is 108 % of control.
`CCN(CC)CC(=O)Nc1c(C)cccc1C`: the T/C was 95 % of control (dose: 25.0 mg/kg/injection, schedule: Q01DX009 (ip), vehicle: saline with Tween-80); 95 % of control under setting [4]; 89 % of control under setting [5]; 95 % of control under setting [1].
As for `CCCCCCCC/C=C/CCCCCC1CCCC(C)N1` (stereo not given), the T/C (dose: 50.0 mg/kg/injection, schedule: Q04DX002 (ip), vehicle: saline with Tween-80) is 98 % of control and 102 % of control; the T/C (dose: 100.0 mg/kg/injection, schedule: Q04DX002 (ip), vehicle: saline with Tween-80) is 94 % of control.
As for `CC(=O)OC(OC(C)=O)c1cccc([N+](=O)[O-])c1`, the T/C by setting is: under setting [5], 102 % of control; under setting [6], 93 % of control; under setting [7], 96 % of control.
For `Cn1c(=O)c2c(nc(NN)n2C)n(C)c1=O`, the T/C runs as follows: (dose: 12.5 mg/kg/injection, schedule: Q01DX005 (ip), vehicle: distilled water + Tween-80) 100 % of control; (dose: 25.0 mg/kg/injection, schedule: Q01DX005 (ip), vehicle: distilled water + Tween-80) 100 % of control; (dose: 50.0 mg/kg/injection, schedule: Q01DX005 (ip), vehicle: distilled water + Tween-80) 103 % of control; (dose: 100.0 mg/kg/injection, schedule: Q01DX005 (ip), vehicle: distilled water + Tween-80) 89 % of control; (dose: 200.0 mg/kg/injection, schedule: Q01DX005 (ip), vehicle: distilled water + Tween-80) 101 % of control.
On to `CCOC(=O)c1c2cccccc-2c(C#N)c1O`, for which the T/C reads like this: under setting [8], 93 % of control; under setting [9], 99 % of control; under setting [10], 96 % of control.
For `COc1cc2cc(c1Cl)N(C)C(=O)CC(OC(=O)C(C)N(C)C(=O)C(C)C)C1(C)OC1C(C)C1CC(O)(NC(=O)O1)C(OC)/C=C/C=C(C)C2` (stereo not given), the T/C (dose: 1.2 micrograms/kg/injection, schedule: Q01DX009 (ip), vehicle: saline + alcohol) was 109 % of control; the T/C (dose: 2.5 micrograms/kg/injection, schedule: Q01DX009 (ip), vehicle: saline + alcohol) was 113 % of control; the T/C (dose: 5.0 micrograms/kg/injection, schedule: Q01DX009 (ip), vehicle: saline + alcohol) was 116 % of control; the T/C (dose: 10.0 micrograms/kg/injection, schedule: Q01DX009 (ip), vehicle: saline + alcohol) is 119 % of control.
As to `O=C(O)C1CC2C(=O)CCCCCCC2C1O` (stereo not given), the T/C runs as follows: under setting [8], 93 % of control; under setting [5], 98 % of control; under setting [9], 98 % of control; under setting [6], 93 % of control; under setting [10], 91 % of control; under setting [7], 96 % of control.
Take `CCCCCCCCCCCC[N+]1(C)CCOCC1`: the T/C runs as follows: (dose: 12.5 mg/kg/injection, schedule: Q01DX009 (ip), vehicle: Klucel (hydroxypropylcellulose) (HPC)) 102 % of control; (dose: 25.0 mg/kg/injection, schedule: Q01DX009 (ip), vehicle: Klucel (hydroxypropylcellulose) (HPC)) 98 % of control; (dose: 50.0 mg/kg/injection, schedule: Q01DX009 (ip), vehicle: Klucel (hydroxypropylcellulose) (HPC)) 98 % of control.
Turning to `CC(=O)OC(C)C(OC(C)=O)C(OC(C)=O)C(C=O)OC(C)=O` (stereo not given), the T/C by setting is: (dose: 100.0 mg/kg/injection, schedule: Q01DX001 (ip), vehicle: Klucel (hydroxypropylcellulose) (HPC)) 101 % of control; (dose: 200.0 mg/kg/injection, schedule: Q01DX001 (ip), vehicle: Klucel (hydroxypropylcellulose) (HPC)) 101 % of control; (dose: 400.0 mg/kg/injection, schedule: Q01DX001 (ip), vehicle: Klucel (hydroxypropylcellulose) (HPC)) 101 % of control.
Take `COC(=O)/C1=C/CCCCCC(=O)C1C(=O)OC` (stereo not given): the T/C runs as follows: under setting [5], 96 % of control; under setting [1], 96 % of control; under setting [6], 96 % of control; under setting [2], 100 % of control; under setting [7], 93 % of control; under setting [3], 96 % of control.
As to `O=[N+]([O-])CC(OCCO)C(Cl)(Cl)Cl` (stereo not given), the T/C is, setting by setting: (dose: 6.25 mg/kg/injection, schedule: Q01DX009 (ip), vehicle: acetone) 97 % of control; (dose: 12.5 mg/kg/injection, schedule: Q01DX009 (ip), vehicle: acetone) 102 % of control; (dose: 12.5 mg/kg/injection, schedule: Q04DX003 (ip), vehicle: acetone) 90 % of control; (dose: 25.0 mg/kg/injection, schedule: Q01DX009 (ip), vehicle: acetone) 97 % of control; (dose: 25.0 mg/kg/injection, schedule: Q04DX003 (ip), vehicle: acetone) 87 % of control.
On to `CCCC(N(C)C)P(=O)(O)O` (stereo not given), for which the T/C was 95 % of control under setting [11], 101 % of control under setting [12] and 101 % of control under setting [13].
In the case of `CN1C2CCC1CC(O)C2` (stereo not given), the T/C (dose: 100.0 mg/kg/injection, schedule: Q04DX002 (ip), vehicle: saline) was 109 % of control; the T/C (dose: 200.0 mg/kg/injection, schedule: Q04DX002 (ip), vehicle: saline) was 109 % of control; the T/C (dose: 400.0 mg/kg/injection, schedule: Q04DX002 (ip), vehicle: saline) was 97 % of control.
On to `NC(CO)CO`, for which the T/C by setting is: under setting [11], 98 % of control; under setting [12], 95 % of control; under setting [13], 98 % of control.
In the case of `O=C(O)C1C2CC3OC(=O)C1C3C2O` (stereo not given), the T/C under setting [5] was 91 % of control, the T/C under setting [6] was 93 % of control and the T/C under setting [7] was 96 % of control.
Turning to `CNc1cccnc1/C=N/NC(N)=S`, the T/C is, setting by setting: (dose: 12.5 mg/kg/injection, schedule: Q01DX009 (ip), vehicle: saline with Tween-80) 104 % of control; under setting [4], 154 % of control; under setting [5], 162 % of control; under setting [6], 181 % of control; under setting [7], 90 % of control.
With `O=C1CCC(=O)N1O`, the T/C by setting is: (dose: 100.0 mg/kg/injection, schedule: Q01DX001 (ip), vehicle: saline) 104 % of control; under setting [11], 100 % of control; (dose: 200.0 mg/kg/injection, schedule: Q01DX001 (ip), vehicle: saline) 103 % of control; under setting [12], 102 % of control; (dose: 400.0 mg/kg/injection, schedule: Q01DX001 (ip), vehicle: saline) 103 % of control; under setting [13], 98 % of control.
With `N/N=C1/C(=O)c2cccc3cccc1c23`, the T/C reads like this: under setting [1], 100 % of control; under setting [2], 102 % of control; under setting [3], 92 % of control.
In the case of `O=C(O)C(=O)O.[NH-]C1CCCCC1C1CCCCC1[NH-].[Pt+2]` (stereo not given), the T/C (dose: 3.12 mg/kg/injection, schedule: Q04DX003 (ip), vehicle: distilled water + Tween-80) is 112 % of control; the T/C (dose: 6.25 mg/kg/injection, schedule: Q04DX003 (ip), vehicle: distilled water + Tween-80) is 119 % of control; the T/C (dose: 25.0 mg/kg/injection, schedule: Q04DX003 (ip), vehicle: distilled water + Tween-80) was 160 % of control; the T/C (dose: 50.0 mg/kg/injection, schedule: Q04DX003 (ip), vehicle: distilled water + Tween-80) is 238 % of control.
As to `Cc1cc2nc3c4ccccc4n(C)c3nc2cc1C`, the T/C runs as follows: (dose: 50.0 mg/kg/injection, schedule: Q01DX009 (sc), vehicle: Klucel (hydroxypropylcellulose) (HPC)) 101 % of control; (dose: 100.0 mg/kg/injection, schedule: Q01DX009 (sc), vehicle: Klucel (hydroxypropylcellulose) (HPC)) 104 % of control; (dose: 200.0 mg/kg/injection, schedule: Q01DX009 (sc), vehicle: Klucel (hydroxypropylcellulose) (HPC)) 104 % of control.
For `O=[N+]([O-])c1cc(C(F)(F)F)ccc1F`, the T/C is 110 % of control (dose: 25.0 mg/kg/injection, schedule: Q04DX003 (ip), vehicle: saline with Tween-80); 98 % of control (dose: 50.0 mg/kg/injection, schedule: Q04DX003 (ip), vehicle: saline with Tween-80); 105 % of control under setting [1].
As for `O=C1C=CC(=O)C1`, the T/C (dose: 5.0 mg/kg/injection, schedule: Q04DX002 (ip), vehicle: saline with Tween-80) is 108 % of control.
